Measured values as given in patent publication US20220313698A1, “MODULATORS OF CYSTIC FIBROSIS TRANSMEMBRANE CONDUCTANCE REGULATOR” (Vertex Pharmaceuticals Incorporated, priority 2019, published 2022).

Molecular target: CFTR-mediated chloride transport (Homo sapiens, UniProt P13569)
Experiment: Corrector Assay A - membrane potential dye assay (enteroid cells)
Conditions: for EC50: read-out: Corrector Assay A EC50, human intestinal enteroid cells, 18-24 h incubation, acute 10 μM forskolin + 300 nM ivacaftor
[1] = % of chloride transport of triple combination control (1 μM (14S)-dispiro macrocycle + 3 μM tezacaftor + 300 nM ivacaftor)

SMILES | Corrector Assay A % activity [1] | EC50 | Corrector Assay A % activity (given as a number, not a class symbol, % of triple combination control)
CC(C)(C)c1ccc2c(n1)N1C[C@@H](CCC(CCC(C3CC3)C3CC3)Nc3cccc(n3)S(=O)(=O)NC2=O)CC1(C)C (single isomer, unassigned) [Compound 51] | + (+ is <30%) | > 3000 nM | 
CC(C)(C)c1ccc2c(n1)N1C[C@@H](CCC(CCC(C3CC3)C3CC3)Nc3cccc(n3)S(=O)(=O)NC2=O)CC1(C)C (single isomer, unassigned) [Compound 52] | ++ (++ is 30-60%) | < 1000 nM | 
CC(C)(C)c1ccc2c(n1)N1C[C@@H](CC[C@@H](c3ncccc3Br)Nc3cccc(n3)S(=O)(=O)NC2=O)CC1(C)C (single isomer, unassigned) [Compound 53] | +++ (+++ is >60%) | < 1000 nM | 
CC(C)(C)c1ccc2c(n1)N1C[C@@H](CC[C@@H](c3ncccc3Br)Nc3cccc(n3)S(=O)(=O)NC2=O)CC1(C)C (single isomer, unassigned) [Compound 54] | + (+ is <30%) | > 3000 nM | 
CC(C)(C)NCc1ccnc([C@@H]2CC[C@@H]3CN(c4nc(C(C)(C)C)ccc4C(=O)NS(=O)(=O)c4cccc(n4)N2)C(C)(C)C3)c1 (single isomer, unassigned) [Compound 61] | +++ (+++ is >60%) | < 1000 nM | 
CC(C)(C)NCc1ccnc([C@@H]2CC[C@@H]3CN(c4nc(C(C)(C)C)ccc4C(=O)NS(=O)(=O)c4cccc(n4)N2)C(C)(C)C3)c1 (single isomer, unassigned) [Compound 62] | ++ (++ is 30-60%) | 1000 to 3000 nM | 
CC(C)(C)c1ccc2c(n1)N1C[C@@H](CCC(c3ncccc3Cl)Nc3cccc(n3)S(=O)(=O)NC2=O)CC1(C)C (single isomer, unassigned) [Compound 65] | ++ (++ is 30-60%) | < 1000 nM | 
CC(C)(C)c1ccc2c(n1)N1C[C@@H](CCC(c3ncccc3Cl)Nc3cccc(n3)S(=O)(=O)NC2=O)CC1(C)C (single isomer, unassigned) [Compound 66] | + (+ is <30%) | > 3000 nM | 
CC(C)(C)c1ccc2c(n1)N1C[C@@H](CC[C@@H](c3cc(-c4cn[nH]c4)ccn3)Nc3cccc(n3)S(=O)(=O)NC2=O)CC1(C)C (single isomer, unassigned) [Compound 68] | +++ (+++ is >60%) | < 1000 nM | 
CC(C)(C)c1ccc2c(n1)N1C[C@@H](CC[C@@H](c3cc(-c4cn[nH]c4)ccn3)Nc3cccc(n3)S(=O)(=O)NC2=O)CC1(C)C (single isomer, unassigned) [Compound 69] | ++ (++ is 30-60%) | < 1000 nM | 
CC(C)(C)c1ccc2c(n1)N1C[C@@H](CC[C@@H](c3cc(-c4cc[nH]n4)ccn3)Nc3cccc(n3)S(=O)(=O)NC2=O)CC1(C)C (single isomer, unassigned) [Compound 73] | +++ (+++ is >60%) | < 1000 nM | 
CC(C)(C)c1ccc2c(n1)N1C[C@@H](CC[C@@H](c3cc(-c4cc[nH]n4)ccn3)Nc3cccc(n3)S(=O)(=O)NC2=O)CC1(C)C (single isomer, unassigned) [Compound 74] | ++ (++ is 30-60%) | < 1000 nM | 
CC(C)(C)c1ccnc(C2CC[C@@H]3CN(c4nc(C(C)(C)C)ccc4C(=O)NS(=O)(=O)c4cccc(n4)N2)C(C)(C)C3)c1 (single isomer, unassigned) [Compound 75] | +++ (+++ is >60%) | < 1000 nM | 
CC(C)(C)c1ccnc(C2CC[C@@H]3CN(c4nc(C(C)(C)C)ccc4C(=O)NS(=O)(=O)c4cccc(n4)N2)C(C)(C)C3)c1 (single isomer, unassigned) [Compound 76] | ++ (++ is 30-60%) | < 1000 nM | 
CC(C)(C)c1ccc2c(n1)N1C[C@@H](CC[C@H](c3ccc(C(F)(F)F)cn3)Nc3cccc(n3)S(=O)(=O)NC2=O)CC1(C)C (single isomer, unassigned) [Compound 80] | ++ (++ is 30-60%) | < 1000 nM | 
CC(C)(C)c1ccc2c(n1)N1C[C@@H](CC[C@@H](c3ccc(C(F)(F)F)cn3)Nc3cccc(n3)S(=O)(=O)NC2=O)CC1(C)C (single isomer, unassigned) [Compound 81] | + (+ is <30%) | < 1000 nM | 
CC(C)(C)c1ccc2c(n1)N1C[C@@H](CCC(c3cc(C(N)=O)ccn3)Nc3cccc(n3)S(=O)(=O)NC2=O)CC1(C)C (single isomer, unassigned) [Compound 82] | ++ (++ is 30-60%) | < 1000 nM | 
CC(C)(C)c1ccc2c(n1)N1C[C@@H](CCC(c3cc(C(N)=O)ccn3)Nc3cccc(n3)S(=O)(=O)NC2=O)CC1(C)C (single isomer, unassigned) [Compound 83] | ++ (++ is 30-60%) | < 1000 nM | 
CC(C)(C)c1ccc2c(n1)N1C[C@@H](CC[C@@H](c3cc(CCN)ccn3)Nc3cccc(n3)S(=O)(=O)NC2=O)CC1(C)C (single isomer, unassigned) [Compound 84] | +++ (+++ is >60%) | < 1000 nM | 

SMILES | Corrector Assay A % activity [1] | EC50 | Corrector Assay A % activity (given as a number, not a class symbol, % of triple combination control)
CC(C)(C)c1ccc2c(n1)N1C[C@@H](CC[C@@H](c3cc(CCN)ccn3)Nc3cccc(n3)S(=O)(=O)NC2=O)CC1(C)C (single isomer, unassigned) [Compound 85] | ++ (++ is 30-60%) | < 1000 nM | 
CN(C)Cc1ccnc([C@@H]2CC[C@@H]3CN(c4nc(C(C)(C)C)ccc4C(=O)NS(=O)(=O)c4cccc(n4)N2)C(C)(C)C3)c1 (single isomer, unassigned) [Compound 86] | ++ (++ is 30-60%) | < 1000 nM | 
CN(C)Cc1ccnc([C@@H]2CC[C@@H]3CN(c4nc(C(C)(C)C)ccc4C(=O)NS(=O)(=O)c4cccc(n4)N2)C(C)(C)C3)c1 (single isomer, unassigned) [Compound 87] | + (+ is <30%) | < 1000 nM | 
CC(C)(C)c1ccc2c(n1)N1C[C@@H](CC[C@@H](c3cc(C(F)(F)F)ccn3)Nc3cccc(n3)S(=O)(=O)NC2=O)CC1(C)C (single isomer, unassigned) [Compound 92] |  | < 1000 nM | 52.5%
CC(C)(C)c1ccc2c(n1)N1C[C@@H](CC[C@H](c3cc(C(F)(F)F)ccn3)Nc3cccc(n3)S(=O)(=O)NC2=O)CC1(C)C (single isomer, unassigned) [Compound 93] | +++ (+++ is >60%) | < 1000 nM | 
CC(C)(C)c1ccc2c(n1)N1C[C@@H](CC[C@H](c3cccc(C(F)(F)F)n3)Nc3cccc(n3)S(=O)(=O)NC2=O)CC1(C)C (single isomer, unassigned) [Compound 94] | ++ (++ is 30-60%) | < 1000 nM | 
CC(C)(C)c1ccc2c(n1)N1C[C@@H](CC[C@@H](c3cccc(C(F)(F)F)n3)Nc3cccc(n3)S(=O)(=O)NC2=O)CC1(C)C (single isomer, unassigned) [Compound 95] | ++ (++ is 30-60%) | < 1000 nM | 
COC(=O)NCc1ccnc(C2CC[C@@H]3CN(c4nc(C(C)(C)C)ccc4C(=O)NS(=O)(=O)c4cccc(n4)N2)C(C)(C)C3)c1 (single isomer, unassigned) [Compound 107] | ++ (++ is 30-60%) | < 1000 nM | 
COC(=O)NCc1ccnc(C2CC[C@@H]3CN(c4nc(C(C)(C)C)ccc4C(=O)NS(=O)(=O)c4cccc(n4)N2)C(C)(C)C3)c1 (single isomer, unassigned) [Compound 108] | ++ (++ is 30-60%) | < 1000 nM | 
CC(C)(C)c1ccc2c(n1)N1C[C@@H](CCC(c3cc(CCCN)ccn3)Nc3cccc(n3)S(=O)(=O)NC2=O)CC1(C)C (single isomer, unassigned) [Compound 109] | +++ (+++ is >60%) | < 1000 nM | 
CC(C)(C)c1ccc2c(n1)N1C[C@@H](CCC(c3cc(CCCN)ccn3)Nc3cccc(n3)S(=O)(=O)NC2=O)CC1(C)C (single isomer, unassigned) [Compound 110] | + (+ is <30%) | > 3000 nM | 
CC(C)(C)c1ccc2c(n1)N1C[C@@H](CCC(c3cc(CN)ccn3)Nc3cccc(n3)S(=O)(=O)NC2=O)CC1(C)C (single isomer, unassigned) [Compound 115] | +++ (+++ is >60%) | < 1000 nM | 
CC(C)(C)c1ccc2c(n1)N1C[C@@H](CCC(c3cc(CN)ccn3)Nc3cccc(n3)S(=O)(=O)NC2=O)CC1(C)C (single isomer, unassigned) [Compound 116] | +++ (+++ is >60%) | < 1000 nM | 
CC(C)(C)OC(=O)NCc1ccnc(C2CC[C@@H]3CN(c4nc(C(C)(C)C)ccc4C(=O)NS(=O)(=O)c4cccc(n4)N2)C(C)(C)C3)c1 (single isomer, unassigned) [Compound 119] | +++ (+++ is >60%) | < 1000 nM | 
CC(C)(C)OC(=O)NCc1ccnc(C2CC[C@@H]3CN(c4nc(C(C)(C)C)ccc4C(=O)NS(=O)(=O)c4cccc(n4)N2)C(C)(C)C3)c1 (single isomer, unassigned) [Compound 120] | +++ (+++ is >60%) | < 1000 nM | 
CC(C)(C)c1ccc2c(n1)N1C[C@@H](CC[C@@H](c3cc(C4CCOCC4)ccn3)Nc3cccc(n3)S(=O)(=O)NC2=O)CC1(C)C (single isomer, unassigned) [Compound 121] | +++ (+++ is >60%) | < 1000 nM | 
CC(C)(C)c1ccc2c(n1)N1C[C@@H](CC[C@@H](c3cc(C4CCOCC4)ccn3)Nc3cccc(n3)S(=O)(=O)NC2=O)CC1(C)C (single isomer, unassigned) [Compound 122] | ++ (++ is 30-60%) | < 1000 nM | 
CC(C)(C)c1ccc2c(n1)N1C[C@@H](CC[C@@H](c3cc(C4=CCOCC4)ccn3)Nc3cccc(n3)S(=O)(=O)NC2=O)CC1(C)C (single isomer, unassigned) [Compound 125] | +++ (+++ is >60%) | < 1000 nM | 
